Patent publication US7662767B2, “Polynucleotide intercalator interceptors and inhibitors” (Materials Evolution and Development USA, Inc., priority 2000, dated 2010)
Entries after “also recorded” stand apart in the source; their conditions may differ. Read-outs that look alike come from different tables or passages of the source.

Experiments:
[1] = AO-AO, AO [20 μM], Kapuscinski & Kimmel, 1993, cited from earlier work
[2] = AO-CAF complex, spectrofluorometry λex 485 nm / λem 530 nm; assay type: binding; settings: AO [2 μM], CAF [1-20 μM]
Procedure: Spectrofluorometric analysis was performed at an AO concentration of 2 μM to determine the effect of CAF and a physiological concentration of NaCl on the fluorescence spectra of AO. CAF was added over a series of CAF:AO molecular ratios ranging from 2500:1 to 0.5:1 and the fluorescence intensity determined at λem 530 nm and 635 nm. The fluorescence intensity was again determined following the addition of NaCl to a final concentration 150 mM and pH 7.0 to each test well containing both AO and CAF.
The data in FIG. 3-5A depicts the mean fluorescence values at λem 530 nm of 2 μM AO with CAF in the absence of, and in the presence of, 150 mM NaCl over a range of CAF to AO molecular ratios from 0.5 to 10.0 (1 μM to 20 μM CAF). The example shown in FIG. 3-5A is a plot of fluorescence intensity of AO excited at λex 485 nm and monitored at λem 530 nm versus CAF concentration to show the effect of CAF and NaCl on the fluorescence of AO and the formation of the AO-CAF complex. Solutions of 2 μM AO were analyzed using spectrofluorometric techniques in the presence of various concentrations of CAF with and without addition of NaCl [150 mM]. […] However at the CAF concentration of 5 mM (molecular ratio 2,500:1) there was a significant change in the mean fluorescence intensity with the value going from 1,245±53 for CAF and AO alone to 1,150±34 with the addition of 150 mM NaCl. […]

[3] = system: chicken erythrocyte nuclear chromatin; experiment: Removal of acridine orange from stained chicken erythrocyte nuclear chromatin by xanthine rinse, fluorescence microscopy; settings: slides stained with 10 mM AO; rinse with 50 mM for 10 minutes
[4] = system: chicken erythrocyte nuclear chromatin; experiment: Quantified removal of intercalated AO from chicken erythrocyte smears, fluorescence plate reader; settings: 100 mM xanthine, static, 10 seconds to two hours, AO 1 mM 10 sec stain, λex 485 nm, λem 530 nm
Procedure: Microscope slides (slides) coated with chicken erythrocytes were stained by placing the slide into a 50 ml beaker filled with a 1 mM solution of AO prepared in distilled water for approximately 10 seconds (static) followed by three successive 10 second rinses in distilled water before drying at room temperature. Care was taken to store all slides in the dark when not in use to avoid photobleaching. Stained slides were dried prior to being exposed to 50 ml of a 100 mM solution of either CAF or aminophylline (AM) for set time periods under static conditions. Exposure to the xanthine solution was followed by three 10-second rinses with distilled water and drying of the slides in the dark prior to fluorescence analysis. Control slides consisted of erythrocyte coated slides that were subsequently placed in only distilled water (no stain) prior to drying, blank slides (no erythrocytes) placed in AO staining solutions then dried served as negative controls, and erythrocyte coated cells stained with AO but exposed to only distilled water and not a xanthine solution served as positive control. The stained microscope slides were then attached by tape to a plastic frame (upside down 96-well plate cover) and fluorescence determined using a Perkin-Elmer Model HTS 7000 Bio Assay Reader with λex 485nm and λem 530 with the gain set at 40.
Distilled water served as solvent control (n=8).

[5] = system: chicken erythrocyte nuclear chromatin; experiment: Blocking of acridine orange intercalation into chicken erythrocyte nuclear chromatin, fluorescence microscopy; parameters: key: 0: no blocking effect; 1: slight blocking; 2: moderate blocking; 3: almost total blocking (very slight green fluorescence detectable); 4: complete blockage (no green fluorescence detectable); settings: 10 μM AO
Procedure: Microscope slides coated with chicken erythrocyte were stained with 10 μM AO at three separate areas on the microscope slide as described above. Slides were exposed to […] different xanthies at four different molar ratios for three different periods of time. The xanthines, theophylline, caffeine, 1,3,7,9-tetramethyl uric acid, and aminophylline, were prepared with 10 μM AO at molar ratios of 50:1, 500:1, 2500:1, 5000:1 xanthine to AO in distilled water. Microscope slides coated with chicken erythrocytes were exposed to a mixture of xanthine/AO at each molar ratio for periods of 10 min, 1 min, and 10 seconds under static (non-agitated) conditions. […] Following exposure to the xanthine/AO or to the DNA/AO solutions, the slides were rinsed in distilled water, allowed to dry at room temperature, examined by fluorescence microscopy, and the color of the nuclei recorded. Results were recorded as follows: 0=no blocking effect; 1=slight blocking; 2=moderate blocking; 3=almost total blocking (very slight green fluorescence detectable); 4=complete blockage (no green fluorescence detectable).
In the implementation shown in Table 4-2, the relative intensity of the green fluorescent color ([…]) utilizing a red blocking filter (≧600 nm) was used as the indicator of the intensity of staining. The molar ratio is expressed as the ratio of xanthine concentration to 10 μM AO. Results were recorded as follows: 0=no blocking effect; 1=slight blocking; 2=moderate blocking; 3=almost total blocking (very slight green fluorescence detectable); 4=complete blockage (no green fluorescence detectable). *Kassoc values for the xanthines are taken from Table 2-1 and the Kassoc values for DNA were taken from Table 3-2.

[6] = Xanthine/AO molar ratio 5000:1, exposure 10 min
[7] = molar ratio 50:1, exposure 10 sec
[8] = molar ratio 50:1, exposure 1 min
[9] = molar ratio 50:1, exposure 10 min
[10] = molar ratio 500:1, exposure 10 sec
[11] = molar ratio 500:1, exposure 1 min
[12] = molar ratio 500:1, exposure 10 min
[13] = molar ratio 2500:1, exposure 10 sec
[14] = molar ratio 2500:1, exposure 1 min
[15] = molar ratio 2500:1, exposure 10 min
[16] = molar ratio 5000:1, exposure 10 sec
[17] = molar ratio 5000:1, exposure 1 min

CN(C)c1ccc2cc3ccc(N(C)C)cc3nc2c1.Cl [AO, 3,6-bis[dimethylamino]acridine hydrochloride]
K ± S.D. ([1]; Absorbance (mathematical model)): 29,100 M^−1
K ± S.D. ([1]; Absorbance plus NaCl 150 mM): 42,500 M^−1

Cn1c(=O)c2c(ncn2C)n(C)c1=O [1,3,7-trimethyl xanthine (caffeine), 1,3,7-trimethyl xanthine]
K ± S.D. ([2]; Fluorescence plus NaCl 150 mM): 216 ± 20 M⁻¹
K ± S.D. ([2]; Fluorescence, absence of NaCl): 254 ± 27 M⁻¹
fluorescence intensity after rinse [3]: reduced the fluorescence intensity to background level
reduction of fluorescence (removal of AO) versus time of exposure [4]: followed first order decay kinetics
blocking of AO intercalation [5, 6]: 1
blocking of AO intercalation [5, 7]: 0
blocking of AO intercalation [5, 8]: 0
blocking of AO intercalation [5, 9]: 0
blocking of AO intercalation [5, 10]: 2
blocking of AO intercalation [5, 11]: 0
blocking of AO intercalation [5, 12]: 0
blocking of AO intercalation [5, 13]: 2
blocking of AO intercalation [5, 14]: 1
blocking of AO intercalation [5, 15]: 0
blocking of AO intercalation [5, 16]: 3
blocking of AO intercalation [5, 17]: 2

Cn1c(=O)c2[nH]cnc2n(C)c1=O.NCCN [1,3-dimethyl xanthine ethylenediamine]
reduction of fluorescence (removal of AO) versus time of exposure ([4]; listed as AM): followed first order decay kinetics; also recorded: more rapid removal of AO from the nuclear chromatin
blocking of AO intercalation [5, 6]: 3
blocking of AO intercalation [5, 7]: 0
blocking of AO intercalation [5, 8]: 0
blocking of AO intercalation [5, 9]: 0
blocking of AO intercalation [5, 10]: 2
blocking of AO intercalation [5, 11]: 2
blocking of AO intercalation [5, 12]: 0
blocking of AO intercalation [5, 13]: 3
blocking of AO intercalation [5, 14]: 2
blocking of AO intercalation [5, 15]: 1
blocking of AO intercalation [5, 16]: 3
blocking of AO intercalation [5, 17]: 3
